# According to patent publication US8349333B2, “Allergy inhibitor compositions and kits and methods of using the same” (China Agricultural University, priority 2005, dated 2013):
# What was measured:
# [1] = test system: cats; experiment: Dermatological scores of control cats treated with nitenpyram; format: in vivo; settings: control groups, FIG. 5
# Description: (§1) To determine relationship of infestation and FAD symptom, 10 cats were separated into three groups, including an experimental group with six cats and two control groups with two cats each. One control group was treated nitenpyram, and another was not treated with the nitenpyram. Each experimental cat was lived separated on day 0 and infested with 100 fleas. After two days, all cats in this group were given the nitenpyram to remove the flea from their bodies. Two of the control cats were also given this medicine on day 0. This challenge cycle was repeated every other week for 7 times
# Cats were scored by the dermatological assessments two days after ceasing each infestation. The assessments were included erythema, papules, crusts, scale, alopecia, excoriation. The body of each cat was divided into three portions to assess which part might have the most severe clinical outcome. According the previous documented report, three parts were consisted of: (1) back, from the head to the tail of dorsal surface; (2) double lateral abdomen, from the scapula to the tail; (3) chest and underside, from laryngeal to the caudomedial thighs.
# [2] = test system: cats; experiment: Blood smear cell counts of control cats treated with nitenpyram; format: in vivo
# Description: as §1
# The anti-coagulant peripheral blood at 2 ml was collected on days 0, 2, 16, 30, 44, 58, 62 from the experiment group and day 0, 14, 28, 42, 56, 60 from the control groups. The same samples were collected after the immunization. A drop of blood was smeared on a clean glass slide. After the smear was dried, the cells were stained with Wright-Giemsa stain for 15 min. After a rinse in deionized water, the smear was gently dried with Kimwipe paper and dehydrated by 96% and 100% ethonol with each 10 seconds treatment. The slide was then treated with xylene for 30 min.
# After the staining, nucleus and cytoplasm of blood cell was distinguished by a blue and pink staining. The percentage of each type of cells was counted by a total number of 200 cells in a view under a light microscope.
# [3] = peripheral blood, control group with nitenpyram, day 58
structure (smiles),measurement,setting,value
CCN(Cc1ccc(Cl)nc1)/C(=C/[N+](=O)[O-])NC [nitenpyram],"dermatology score, cats treated with nitenpyram compared with the ones without treatment",[1],no significant difference
same,interference with the cell numbers in the cats' peripheral blood,[2]; comparison of the two control groups,not to interfere
same,Basophils (%),[2]; [3],0.7%
same,Eosinophils (%),[2]; [3],3.4%
same,Lymphocytes (%),[2]; [3],21.8%
same,Monocytes (%),[2]; [3],3.6%
same,Neutrophils (%),[2]; [3],70.5%
